From patent US20110263696A1, “PROANTHOCYANIDINS FROM CINNAMON AND ITS WATER SOLUBLE EXTRACT INHIBIT TAU AGGREGATION” (priority 2007, published 2011)

Tests used:
tau187 [1] = target: T1, tau187 (Homo sapiens, UniProt P10636); assay: Turbidity (OD350) assay of heparin-induced aggregation, tau187; type: biochemical; conditions: cinnamaldehyde 50 and 100 uM; tau187 50 uM, heparin 0.11 mg/ml, 23 C
T1 construct: his; made in house; host or cells: bacteria
Procedure: FIG. 15A. […] 50 μM Tau^187 was incubated with 0.11 mg/ml heparin (18 kDa) at 23° C. Aggregation was monitored by turbidity (OD350). Cinnamaldehyde was present at a final concentration of 0, 50 and 100 μM. FIG. 15B. Electron microscopy of tau fibers in the presence of cinnamaldehyde (CA). Tau fibers were visualized by electron microscopy after 5 hrs of aggregation in the presence of: 0 CA (left panel); B) 100 uM CA (right panel). […] FIG. 15 C. Trans-cinnamaldehyde chemical structure. FIG. 16A. […] 50 uM tau187 was incubated with 0.11 mg/mL heparin (18 kDa) at 23° C. Epicatechin was untreated, treated with 10 mM NH4OH for 10 min at 95° C. then neutralized, or treated with 100 U of mushroom tyrosinase (Sigma) for 10 min. Epicatechin was added to the reaction at a final concentration of 25 uM. Fiber formation was monitored by OD 350. FIG. 16B. epicatechin and catechin chemical structures. FIG. 17A. HPLC analysis of proanthocyanidin A-type trimer, A) purified or B) in whole cinnamon extract. The trimer corresponds to the major peak at ˜40 min. Areas underneath the peaks in panels A and B each correspond to 6150 pmoles. […] Fiber formation was monitored by OD 350. Concentrations of A-trimer in pure form and in whole cinnamon extract (CE) were normalized by absorbance measurements of the A-trimer resolved by HPLC. […]

tau187 [2] = target: T1, tau187; assay: Electron microscopy of tau187 fibers; type: biochemical; conditions: 100 uM CA, 5 hrs of aggregation
Procedure: FIG. 6. […] Aggregation of tau^187 (50 uM) was initiated with heparin (0.1 mg/ml) in 20 mM NaPO4, pH 7.0. in the presence of: no proanthocyanidin (left panel), or 200 uM purified A-type trimer (right panel). Scale: Bars=500 nm
FIG. 13. Effect of oxidized cinnamon on tau filament formation. […] Left panel: no cinnamon; right panel 10 μM oxidized cinnamon.
FIG. 15A. […] 50 μM Tau^187 was incubated with 0.11 mg/ml heparin (18 kDa) at 23° C. Aggregation was monitored by turbidity (OD350). Cinnamaldehyde was present at a final concentration of 0, 50 and 100 μM. FIG. 15B. Electron microscopy of tau fibers in the presence of cinnamaldehyde (CA). Tau fibers were visualized by electron microscopy after 5 hrs of aggregation in the presence of: 0 CA (left panel); B) 100 uM CA (right panel). […] FIG. 15 C. Trans-cinnamaldehyde chemical structure.
Two hexapeptide motifs in tau are critical for tau aggregation and fiber formation (see, e.g. von Bergen et al., Proc Nad Acad Sci USA 97, 5129-34 (2000)). These motifs lie in the first and second inter-repeat regions of the MT binding domain (FIG. 5), and it is known that engineered truncation fragments of tau that contain these motifs often undergo aggregation into fibers even more efficiently than the full-length molecule (see, e.g. Barghorn et al., Biochemistry 41, 14885-96 (2002)). […]

tau polypeptides = assay: Light scattering measurements (absorbance at 350 nm) of tau aggregation; type: biochemical, human
Procedure: FIG. 11. Dose response of cinnamon (oxidized) on tau aggregation. […] In this experiment, cinnamon was incubated overnight in 10 mM NH4OH.
FIG. 12. Effect of cinnamon A trimer on light scattering of tau.
In one illustrative embodiment of the invention, the effects of cinnamon extract or purified cinnamon proanthocyanidins on tau aggregation can be followed readily in a spectrophotometer by measuring the change in absorbance at 350 nm. The association of tau promoted by heparin causes an increase in absorbance. […] Different buffers and temperatures may be used if desired to study factor influencing aggregation.

[3] = literature; cited from earlier work
tau = conditions: literature; cited from earlier work

T1 sequence (P10636 572-758 limits assumed): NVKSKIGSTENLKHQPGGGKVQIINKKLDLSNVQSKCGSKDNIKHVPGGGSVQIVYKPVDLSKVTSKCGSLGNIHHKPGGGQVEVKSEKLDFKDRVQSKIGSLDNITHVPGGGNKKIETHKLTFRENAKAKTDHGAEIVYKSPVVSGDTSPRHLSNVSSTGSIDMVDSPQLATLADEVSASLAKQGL

O=C/C=C/c1ccccc1 [cinnamaldehyde, Trans-cinnamaldehyde]
Inhibition of tau187 aggregation (turbidity OD350) (tau187 [1]): Inhibition of tau aggregation | Tau fiber density by EM (tau187 [2]): dramatically reduced

Oc1cc(O)c2c(c1)O[C@H](c1ccc(O)c(O)c1)[C@H](O)[C@H]2c1c(O)cc(O)c2c1O[C@H](c1ccc(O)c(O)c1)[C@H](O)C2 [cinnamon proanthocyanidin B2, proanthocyanidin B2]
Inhibition of tau aggregation by light scattering (tau polypeptides): inhibits the aggregation

Oc1cc(O)c2c(c1)O[C@H](c1ccc(O)c(O)c1)[C@H](O)C2 [epicatechin]
Brain permeability after oral ingestion [3]: brain-permeable

O=C(O[C@@H]1Cc2c(O)cc(O)cc2O[C@@H]1c1cc(O)c(O)c(O)c1)c1cc(O)c(O)c(O)c1 [epigallocatechin gallate]
Inhibition of tau aggregation (published studies) (tau): effectively inhibit tau aggregation

Oc1cc(O)c2c(c1)O[C@H](c1ccc(O)c(O)c1)[C@H](O)[C@H]2c1c(O)cc(O)c2c1O[C@H](c1ccc(O)c(O)c1)[C@@H](O)C2 [proanthocyanidin dimer B1]
Inhibition of tau aggregation (published studies) (tau): effectively inhibit tau aggregation
